{
  "source": "patent US9321838B2",
  "about": "“Therapy targeting cathepsin S” (Fusion Antibodies Limited, priority 2006, dated 2016)",
  "key": {"[1]": {"system": "HCT116+/+ human colorectal adenocarcinoma xenograft", "experiment": "HCT116+/+ xenograft model, immunohistochemistry of tumour sections", "assay_type": "in vivo, SCID mice", "details": "15 mg/kg; sections stained with CatS 1E11 mAb; vs untreated", "quoted_text": "6-8 week old female SCID mice were implanted with 2×10^6 HCT116+/+ human colorectal adenocarcinoma cells into each flank. […] They were mixed with equal volumes of matrigel to give a final concentration of 5×10^6 cells/ml. Mice were randomly separated into treatment groups on day 5 after implantation and treated with various regimes of CatS Mab or Isotype control Mab (10 mg/kg) with/without 5Fu (15 mg/kg daily or 70 mg/kg twice weekly). All drugs were administered through a bolus injection. Animals were sacrificed at various time points and tumours were removed for analysis.\nParaffin embedding of formalin-fixed xenograft/organ tissue samples, section cutting and H&E (haematoxylin and eosin) staining of tissue sections were performed as previously described. Immunostaining was performed using the avidin-horseradish peroxidase method (Vectorlabs ABC Kit).\nBriefly, sections were deparaffinised by passing from xylene to alcohol to running water. Endogenous peroxidase activity was blocked by incubation in 3% H2O2 in methanol for 10 min. Sections were then boiled in citrate buffer, pH6.0, for 22 min. Incubation in 5% normal horse serum blocking solution was carried out for 20 min at room temp. Sections were incubated with primary antibody at 4° C. overnight. Appropriate isotype controls were used at the same dilutions as primary antibodies. […]"}, "HCT116+/+ cells [2]": {"system": "HCT116+/+ cells", "experiment": "RT semi quantitative PCR of CatS mRNA with/without CPT11", "assay_type": "cell-based, human", "details": "7.5 μM CPT11, 48 hour; treated vs untreated"}, "RKO+/+ cells [3]": {"system": "RKO+/+ cells", "experiment": "RT semi quantitative PCR of CatS mRNA with/without CPT11", "assay_type": "cell-based, human", "details": "7.5 μM CPT11, 48 hour; treated vs untreated"}, "HCT116+/+ cells [4]": {"system": "HCT116+/+ cells", "experiment": "western blot of CatS in whole cell lysates with/without CPT11", "assay_type": "cell-based, human", "details": "48 hour CPT11 treatment (7.5 μM), whole cell lysate", "method": "(§1) Cells were washed in PBS (5 minute centrifugation at 1500 rpm) prior to lysis with RIPA buffer containing a protease inhibitor cocktail (Calbiochem, UK) as previously described. Whole cell lysates were loaded onto 12% SDS-PAGE gels at equal concentrations. Gels were run overnight at 50V prior to semi-dry transfer onto nitrocellulose membrane at 20V for 45 minutes (BioRad, UK). The nitrocellulose membrane was blocked using PBS (3% Milk powder) for ˜1 hour, and washed ×3 with PBS (0.01% tween) for 5 minutes. The membrane was then probed with a 1 in 1000 dilution of CatS Mab (1E4 Mab or 1E11 Mab) in PBS (3% Milk powder) for 1 hour. The membrane was washed ×3 with PBS (0.01% tween) for 5 minutes prior to the addition of a 1 in 5000 dilution of secondary goat anti mouse-HRP conjugated antibody (BioRad, UK) in PBS (3% Milk powder) for 1 hour. This was then washed three times in PBS (0.01% tween) for 5 minutes each. The membrane was ‘developed’ by ECL (enhanced chemiluminescence) using the Super Signal kit (Pierce). The membrane was incubated in ECL solution for 5 minutes, prior to exposure to photographic film for various time periods. The photographic film was washed in developer solution (Sigma, UK) for 1 minute, rinsed with water, and washed in fixer solution (Sigma, UK) again for 1 minute before being rinsed and dried. […]"}, "RKO+/+ cells [5]": {"system": "RKO+/+ cells", "experiment": "western blot of CatS in whole cell lysates with/without CPT11", "assay_type": "cell-based, human", "details": "48 hour CPT11 treatment (7.5 μM), whole cell lysate", "method": "as §1"}, "H630 p53 mutant cells": {"system": "H630 p53 mutant cells", "experiment": "flow cytometry of CatS cell surface expression with/without CPT11", "assay_type": "cell-based, human", "details": "CPT11 48 hour treated; basal 37%", "method": "(§2) Cells were collected from tissue culture plates using a scraper and washed ×3 in PBS (0.01% tween) (5 minute centrifugation at 1500 rpm). Approximately 5×10^5 cells were placed in appropriately labelled tubes. Cells were incubated with 50 μl anti-CatS or Isotype control (Sigma, UK) for 1 hour at room temperature. Following incubation each tube was washed ×3 in PBS (0.01% tween) (5 minute centrifugation at 1500 rpm). Samples were then incubated with a 1 in 15 dilution of FITC-conjugated goat anti-mouse secondary antibody (Sigma, UK) (samples kept in dark at room temperature). Following incubation each tube was washed ×3 in PBS (0.01% tween) (5 minute centrifugation at 1500 rpm). Samples were resuspended in 0.5 ml of PBS prior to immediate analysis using the Cyan flow cytometer (Dako, UK). Cell surface expression of CatS was examined using flow Cytometry."}, "HCT116+/+ cells [6]": {"system": "HCT116+/+ cells", "experiment": "flow cytometry of CatS cell surface expression with/without CPT11", "assay_type": "cell-based, human", "details": "CPT11 48 hour treated; basal 39%", "method": "as §2"}, "RKO+/+ cells [7]": {"system": "RKO+/+ cells", "experiment": "flow cytometry of CatS cell surface expression with/without CPT11", "assay_type": "cell-based, human", "details": "CPT11 48 hour treated; basal 38%", "method": "as §2"}, "[8]": {"system": "U251MG grade IV glioblastoma cell line", "details": "U251MG cells, in the presence of the Cat S inhibitor; cited from earlier work"}, "other cathepsins": {"system": "other cathepsins", "details": "at higher concentrations; cited from earlier work"}},
  "data": [
    {"smiles": "O=c1[nH]cc(F)c(=O)[nH]1", "note": "[5-Fu, Fluorouracil, reference compound]", "values": [
      {"measurement": "CatS expression in tumour sections from treated mice", "setting": "[1]", "value": "upregulation in CatS expression"}
    ]},
    {"smiles": "CCc1c2c(nc3ccc(OC(=O)N4CCC(N5CCCCC5)CC4)cc13)-c1cc3c(c(=O)n1C2)COC(=O)[C@]3(O)CC", "note": "[CPT11, Irinotecan]", "values": [
      {"measurement": "CatS mRNA expression in response to chemotherapy", "setting": "HCT116+/+ cells [2]", "value": "increase in expression"},
      {"measurement": "CatS mRNA expression in response to chemotherapy", "setting": "RKO+/+ cells [3]", "value": "increase in expression"},
      {"measurement": "CatS whole protein expression, treated vs untreated", "setting": "HCT116+/+ cells [4]", "value": "no obvious difference in whole protein expression levels"},
      {"measurement": "CatS whole protein expression, treated vs untreated", "setting": "RKO+/+ cells [5]", "value": "no obvious difference in whole protein expression levels"},
      {"measurement": "positive CatS cell surface expression following chemotherapy induction", "setting": "H630 p53 mutant cells", "value": 41, "unit": "%"},
      {"measurement": "positive CatS cell surface expression following chemotherapy induction", "setting": "HCT116+/+ cells [6]", "value": 59, "unit": "%"},
      {"measurement": "positive CatS cell surface expression following chemotherapy induction", "setting": "RKO+/+ cells [7]", "value": 49, "unit": "%"}
    ]},
    {"smiles": "CC(C)C[C@H](NC(=O)N1CCOCC1)C(=O)N[C@H](/C=C/S(=O)(=O)c1ccccc1)CCc1ccccc1", "note": "[LHVS, 4-Morpholineurea-Leu-HomoPhe-vinylsulphone]", "values": [
      {"measurement": "reduction in invasion", "setting": "[8]", "value": 61, "unit": "%"},
      {"measurement": "inhibition of other cathepsins", "setting": "other cathepsins", "value": "inhibit other cathepsins when used at higher concentrations"}
    ]}
  ]
}
